Data on ten molecules can be found in article PMC9143943, “Novel Tyrosine Kinase Inhibitors to Target Chronic Myeloid Leukemia” (Molecules, 2022).

Data set [1] has as its target T1, HO-1 (Rattus norvegicus, UniProt P06762).
T1 construct: This microsomal preparation represents the most native (i.e., closest to in vivo) form of HO-1; from tissue; host or cells: rat spleen microsomes (male Sprague-Dawley rats)
T1 sequence (P06762 1-289): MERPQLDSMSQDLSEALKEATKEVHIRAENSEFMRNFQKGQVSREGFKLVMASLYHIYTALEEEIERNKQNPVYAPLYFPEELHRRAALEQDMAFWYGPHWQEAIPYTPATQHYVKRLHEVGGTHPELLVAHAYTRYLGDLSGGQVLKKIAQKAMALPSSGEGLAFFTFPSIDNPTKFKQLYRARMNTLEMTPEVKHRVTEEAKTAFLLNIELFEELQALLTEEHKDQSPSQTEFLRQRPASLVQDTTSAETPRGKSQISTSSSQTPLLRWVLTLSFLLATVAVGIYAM
In words: HO-1 enzymatic activity in microsomal fraction of rat spleen (bilirubin formation). The data set is classed as biochemical. How it is done: HO-1 activity was measured in microsomal fractions of rat spleen obtained as described in the experimental section. The activity was determined by measuring the bilirubin formation using the difference in absorbance at 464–530 nm. HO-1 inhibitors LS/0 and LS1/71 were used as reference compounds. […] Nevertheless, some observed differences in the results among the tested compounds allow us to discuss SAR as follows. HO-1 inhibitory activity mainly depends on the position of the oxybutylimidazole moiety and only to a lesser extent on the R substituent on the benzamide ring.
Since HO-1 protein is abundant in the rat spleen as well documented, rat spleen microsomal fraction prepared by differential centrifugation was used as source of the HO-1 protein. This microsomal preparation represents the most native (i.e., closest to in vivo) form of HO-1. Spleen microsomal fractions were obtained according to Ryter et al.. The experiments reported in the present paper complied with current Italian law and met the guidelines of the Institutional Animal Care and Use Committee of Ministry of Health (Directorate General for Animal Health and Veterinary Medicines, Italy) “Dosing of enzymatic activities in rat microsomes” (2018–2022), project code 02769.N.VLY. Male Sprague–Dawley albino rats (150 g body weight and age 45 d) used in our experimental conditions to obtain spleen microsomal fraction had free access to water and were kept at room temperature with a natural photo-period (12 h light–12 h dark cycle). To obtain a homogenate (15%, w/v) of spleens, each rat was sacrificed, and its spleen was excised and weighed. Spleens pooled from five rats were homogenized in 50 mM Tris buffer, pH 7.4, containing 0.25 M sucrose, using a Potter–Elvehjem homogenizing system with a Teflon pestle. The microsomal fraction of rat spleen homogenate was obtained by differential centrifugation: first centrifugation at 10,000× g for 20 min at 4 °C and a second centrifugation of the supernatant at 100,000× g for 60 min at 4 °C. The 100,000× g pellet (microsomes) was resuspended in 100 mM potassium phosphate buffer, pH 7.8, containing 2 mM MgCl2. The rat spleen fraction was divided into aliquots and stored at −80 °C for up to 2 months, and then its protein concentration was measured.
Biliverdin reductase was obtained by using rat liver cytosol. Three volumes of a solution 1.15% KCl w/v and Tris buffer 20 mM, pH 7.8, were used to homogenize on ice liver tissue. The 10,000× g supernatant was obtained by differential centrifugation: first centrifugation at 10,000× g for 20 min at 4 °C and a second centrifugation at […] at 4 °C to sediment the microsomes. The 10,000× g supernatant was stored in small amounts at −80 °C, and then its protein concentration was measured.
The HO-1 activity was determined by measuring the bilirubin formation using the difference in absorbance at 464–530 nm, as described by Ryter et al.. A final volume of 500 μL of incubation mixtures contained 20 mM Tris–HCl, pH 7.4, (1 mg/mL) microsomal extract, 0.5–2 mg/mL biliverdin reductase, 1 mM NADPH, 2 mM glucose 6-phosphate (G6P), 1 U G6P dehydrogenase, 25 μM hemin, and 10 μL of DMSO (or the same volume of DMSO solution of test compounds to a final concentration of 100, 10, and 1 μM). Enzymatic reactions were carried out in the dark for 60 min at 37 °C in a circulating water bath. The reactions were stopped by the addition of 500 μL of chloroform. After recovering the chloroform phase, the amount of bilirubin formed was measured with a double-beam spectrophotometer as OD464–530 nm (extinction coefficient, 40 mM/cm^−1 for bilirubin). The enzymatic activity was defined as Units (one Unit is the amount of enzyme catalyzing the formation of 1 nmol of bilirubin/mg protein/h).

In data set [2] the target is BCR-ABL kinase (Homo sapiens, UniProt P00519). The data set is described as follows: FRET-based Z'-Lyte kinase assay.
Sequence of BCR-ABL kinase (P00519 whole entry): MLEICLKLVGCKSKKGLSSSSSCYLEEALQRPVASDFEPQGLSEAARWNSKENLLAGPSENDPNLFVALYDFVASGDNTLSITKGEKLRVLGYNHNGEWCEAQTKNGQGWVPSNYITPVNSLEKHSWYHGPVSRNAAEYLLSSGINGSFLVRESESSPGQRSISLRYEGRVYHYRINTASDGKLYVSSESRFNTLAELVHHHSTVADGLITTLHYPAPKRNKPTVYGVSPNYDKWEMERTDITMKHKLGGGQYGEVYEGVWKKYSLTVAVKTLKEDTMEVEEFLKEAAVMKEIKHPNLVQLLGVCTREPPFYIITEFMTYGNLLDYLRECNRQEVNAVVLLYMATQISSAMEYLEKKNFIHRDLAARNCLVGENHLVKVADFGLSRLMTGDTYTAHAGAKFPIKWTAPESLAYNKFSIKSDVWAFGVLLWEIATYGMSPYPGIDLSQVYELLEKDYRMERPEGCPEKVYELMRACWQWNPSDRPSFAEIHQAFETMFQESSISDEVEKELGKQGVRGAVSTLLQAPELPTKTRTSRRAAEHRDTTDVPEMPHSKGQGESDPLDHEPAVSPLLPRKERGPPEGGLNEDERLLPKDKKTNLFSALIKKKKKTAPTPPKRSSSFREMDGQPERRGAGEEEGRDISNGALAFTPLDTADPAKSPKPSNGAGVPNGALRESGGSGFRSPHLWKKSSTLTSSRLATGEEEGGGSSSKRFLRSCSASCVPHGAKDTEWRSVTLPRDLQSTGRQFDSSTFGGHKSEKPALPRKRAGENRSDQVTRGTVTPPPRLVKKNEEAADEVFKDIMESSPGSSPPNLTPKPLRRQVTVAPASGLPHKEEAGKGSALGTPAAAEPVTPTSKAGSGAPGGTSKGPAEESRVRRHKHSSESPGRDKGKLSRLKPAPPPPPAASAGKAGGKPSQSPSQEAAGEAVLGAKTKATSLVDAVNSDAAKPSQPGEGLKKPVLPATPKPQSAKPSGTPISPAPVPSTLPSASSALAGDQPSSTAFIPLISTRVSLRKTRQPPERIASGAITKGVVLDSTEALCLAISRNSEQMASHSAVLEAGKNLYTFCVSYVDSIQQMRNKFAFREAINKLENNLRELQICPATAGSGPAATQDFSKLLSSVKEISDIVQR
Procedure: Novel compounds were tested to investigate their ability to inhibit both BCR-ABL TK and HO-1.
For data set [3], the system named is K562-S cells. In words: In vitro cytotoxicity, NIL-sensitive K562 cells (trypan blue / XTT). Type of data set: cell-based. Particulars: 0.5 and 5 μM, 48 h. How it is done: K562 cells (CCL-243 ATCC) were cultured in RPMI 1640 (L0500, Biowest, Riverside, MO, USA) supplemented with 10% Fetal Bovine Serum (FBS) and 1% penicillin–streptomycin and incubated at 37 °C in 5% CO2. K562 cells were seeded at a concentration of 1 × 10^5 cells/mL of culture medium. […] Briefly, cells were harvested by centrifugation and resuspended in 5 mL of fresh medium; then an aliquot of 10 μL was taken and mixed with Trypan Blue (93595, Sigma-Aldrich, Milan, Italy) stain (1:1). The mixture was applied on a counting chamber, and cells were counted on a binocular microscope. […] Once resistance was established (after approximately 9 months), K562-R and K562-S were treated with compounds at different concentrations.
Treatments were maintained for 48 h, and then cell viability was assessed: (a) with 0.2% (final concentration) trypan blue dye exclusion analysis which is used to determine the number of viable cells present in a cell suspension and (b) with XTT assay.
• (a) Briefly, the cell number was determined by counting the viable cells in a Burker counting chamber divided into 16 fields of 1 mm^2. […]

The mark [4] stands for this setting: experimental HO-1 IC50 repeated in Table 3, read-out: IC50.
The mark [5] stands for this setting: rat spleen microsomal fraction, read-out: HO-1 IC50 (μM) ± SD.

Entries after “also recorded” stand apart in the source; their conditions may differ. Like-named read-outs stand apart in the source and are kept apart here.

On to `Cc1ccc(C(=O)Nc2cc(OCCCCn3ccnc3)cc(C(F)(F)F)c2)cc1Nc1nccc(-c2cccnc2)n1` [Compound 1h, N-(3-(4-(1H-imidazol-1-yl)butoxy)-5-(trifluoromethyl)phenyl)-4-methyl-3-((4-(pyridin-3-yl)pyrimidin-2-yl)amino)benzamide], for which the melting point was in the range of 180.3 to 182.5 °C. Further, the IC50 in data set [1] (setting [4]) stood at 65.4 µM. Moreover, the half-inhibitory concentration (IC50) in data set [1] (setting [5]) is 65.4 ± 1.39 µM. This molecule also gave an IC50 in data set [2] of 0.77 ± 0.042 µM. Besides, in data set [3], the K562-S cell viability entry was “significant reduction; also recorded: cytotoxic properties similar to NIL and IM”.
Molecule `Cc1ccc(C(=O)Nc2cc(OCCCCn3ccnc3)ccc2Br)cc1Nc1nccc(-c2cccnc2)n1` [Compound 1d, N-(5-(4-(1H-imidazol-1-yl)butoxy)-2-bromophenyl)-4-methyl-3-((4-(pyridin-3-yl)pyrimidin-2-yl)amino)benzamide] came in with a melting point of 69.8 to 72 °C. Moreover, the IC50 in data set [1] (setting [4]) was 116 µM. In addition, the IC50 in data set [1] (setting [5]) is 116 ± 5.24 µM. Also, the IC50 in data set [2] was 16.2 ± 0.208 µM.
Take `Cc1ccc(C(=O)Nc2ccc(OCCCCn3ccnc3)c(Br)c2)cc1Nc1nccc(-c2cccnc2)n1` [Compound 1e, N-(4-(4-(1H-imidazol-1-yl)butoxy)-3-bromophenyl)-4-methyl-3-((4-(pyridin-3-yl)pyrimidin-2-yl)amino)benzamide]: the IC50 in data set [1] (setting [4]) is 55.1 µM; in data set [1] (setting [5]), 55.1 ± 0.71 µM; in data set [2] it was 0.037 ± 0.0012 µM.
The molecule `Cc1ccc(C(=O)Nc2ccc(Br)cc2OCCCCn2ccnc2)cc1Nc1nccc(-c2cccnc2)n1` [Compound 1i, N-(2-(4-(1H-imidazol-1-yl)butoxy)-4-bromophenyl)-4-methyl-3-((4-(pyridin-3-yl)pyrimidin-2-yl)amino)benzamide] displayed a melting point of 94 to 96 °C. The IC50 in data set [1] (setting [4]) worked out at 83.4 µM. Moreover, the IC50 in data set [1] (setting [5]) turned out to be 83.4 ± 2.3 µM. For the same molecule, in data set [2], the IC50 amounted to 13.7 ± 0.139 µM.
Taken in the same sequence, the figures for `Cc1ccc(C(=O)Nc2cccc(OCCCCn3ccnc3)c2)cc1Nc1nccc(-c2cccnc2)n1` [Compound 1b, N-(3-(4-(1H-imidazol-1-yl)butoxy)phenyl)-4-methyl-3-((4-(pyridin-3-yl)pyrimidin-2-yl)amino)benzamide] were 118 to 120 °C, 64.6 µM, 64.6 ± 0.69 µM and 4.19 ± 0.16 µM.
Consider `Cc1ccc(C(=O)Nc2ccccc2OCCCCn2ccnc2)cc1Nc1nccc(-c2cccnc2)n1` [Compound 1c, N-(2-(4-(1H-imidazol-1-yl)butoxy)phenyl)-4-methyl-3-((4-(pyridin-3-yl)pyrimidin-2-yl)amino)benzamide], for which the IC50 was 149 µM in data set [1] (setting [4]), 149 ± 8.1 µM in data set [1] (setting [5]) and 14.6 ± 0.283 µM in data set [2].
Take `Cc1ccc(C(=O)Nc2cc(Br)cc(OCCCCn3ccnc3)c2)cc1Nc1nccc(-c2cccnc2)n1` [Compound 1g, N-(3-(4-(1H-imidazol-1-yl)butoxy)-5-bromophenyl)-4-methyl-3-((4-(pyridin-3-yl)pyrimidin-2-yl)amino)benzamide]: the melting point fell in the range of 162 to 164.4 °C. The IC50 in data set [1] (setting [4]) came to 51 µM. For the same molecule, the IC50 in data set [1] (setting [5]) is 51 ± 0.99 µM. In data set [2], 0.077 ± 0.0036 µM corresponded to half-maximal inhibition (IC50). Besides, the K562-S cell viability entry in data set [3] was “significant reduction; also recorded: cytotoxic properties similar to NIL and IM”.
With `Cc1ccc(OCCCCn2ccnc2)c(NC(=O)c2ccc(C)c(Nc3nccc(-c4cccnc4)n3)c2)c1` [Compound 1j, N-(2-(4-(1H-imidazol-1-yl)butoxy)-5-methylphenyl)-4-methyl-3-((4-(pyridin-3-yl)pyrimidin-2-yl)amino)benzamide], the IC50 in data set [1] (setting [4]) is 3060 µM; in data set [1] (rat spleen microsomal fraction, read-out: HO-1 IC50) it was ~3000 µM; in data set [1] (setting [5]) it was 3060 ± 201 µM; in data set [2], 5.45 ± 0.223 µM.
`Cc1ccc(C(=O)Nc2ccc(OCCCCn3ccnc3)cc2)cc1Nc1nccc(-c2cccnc2)n1` [Compound 1a, N-(4-(4-(1H-imidazol-1-yl)butoxy)phenyl)-4-methyl-3-((4-(pyridin-3-yl)pyrimidin-2-yl)amino)benzamide] registered a melting point of 140 to 142 °C. For the same molecule, the IC50 in data set [1] (setting [4]) was found to be 44.8 µM. Further, the IC50 in data set [1] (setting [5]) came out at 44.8 ± 2.58 µM. The molecule also returned an IC50 in data set [2] of 0.109 ± 0.0016 µM.
With `Cc1ccc(C(=O)Nc2ccc(Br)c(OCCCCn3ccnc3)c2)cc1Nc1nccc(-c2cccnc2)n1` [Compound 1f, N-(3-(4-(1H-imidazol-1-yl)butoxy)-4-bromophenyl)-4-methyl-3-((4-(pyridin-3-yl)pyrimidin-2-yl)amino)benzamide], the concentration for half-maximal inhibition (IC50) in data set [1] (setting [4]) turned out to be 100 µM; in data set [1] (setting [5]), 100 ± 3.29 µM; in data set [2] it was 5.21 ± 0.224 µM.

For orientation: IC50 means the concentration that inhibits the measured activity by half. The term melting point denotes the temperature, or range, at which the solid turns liquid.
